Source: the supplement of paper PMC10307832

Legend:
Assay in all cases: relative viability (nuclei count vs DMSO), 5 days (fraction); higher = more cells survive
Linsitinib + Foretinib = compound: C[C@]1(O)C[C@@H](c2nc(-c3ccc4ccc(-c5ccccc5)nc4c3)c3c(N)nccn32)C1 [Linsitinib] + COc1cc2c(Oc3ccc(NC(=O)C4(C(=O)Nc5ccc(F)cc5)CC4)cc3F)ccnc2cc1OCCCN1CCOCC1 [Foretinib] (partner 0.25 µM)
Procedure, shortened: (§1)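 Lung cancer cell lines in 1536-well plates got either a single drug or a fixed anchor-drug dose together with five library-drug doses (not always all listed) in √10 steps, by pin tool, on the day after seeding. Nuclei were counted after 5 days, and relative viability is the treated-to-vehicle ratio of nuclei counts. Values are medians of duplicate plates.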

Linsitinib + AZD7762 = compound: C[C@]1(O)C[C@@H](c2nc(-c3ccc4ccc(-c5ccccc5)nc4c3)c3c(N)nccn32)C1 [Linsitinib] + NC(=O)Nc1cc(-c2cccc(F)c2)sc1C(=O)N[C@H]1CCCNC1 [AZD7762] (partner 0.2 µM)
Procedure, shortened: as §1

Ispinesib + Phenformin = compound: Cc1ccc(C(=O)N(CCCN)[C@@H](c2nc3cc(Cl)ccc3c(=O)n2Cc2ccccc2)C(C)C)cc1 [Ispinesib] + N=C(N)NC(=N)NCCc1ccccc1 [Phenformin] (partner 250 µM)
Procedure, shortened: as §1

Cell Line | relative viability (Linsitinib + Foretinib; first compound 0.01 µM) | relative viability (Linsitinib + Foretinib; first compound 0.03162 µM) | relative viability (Linsitinib + Foretinib; first compound 0.1 µM) | relative viability (Linsitinib + Foretinib; first compound 0.3162 µM) | relative viability (Linsitinib + Foretinib; first compound 1 µM) | relative viability (Linsitinib + AZD7762; first compound 0.01 µM) | relative viability (Linsitinib + AZD7762; first compound 0.03162 µM) | relative viability (Linsitinib + AZD7762; first compound 0.1 µM) | relative viability (Linsitinib + AZD7762; first compound 0.3162 µM) | relative viability (Linsitinib + AZD7762; first compound 1 µM) | relative viability (Ispinesib + Phenformin; first compound 0.001 µM) | relative viability (Ispinesib + Phenformin; first compound 0.003162 µM) | relative viability (Ispinesib + Phenformin; first compound 0.01 µM) | relative viability (Ispinesib + Phenformin; first compound 0.03162 µM) | relative viability (Ispinesib + Phenformin; first compound 0.1 µM)
NCI-H2405 | 1.01 | 1.04 | 1.06 | 0.965 | 0.813 | 0.74 | 0.662 | 0.711 | 0.859 | 0.474 | 0.41 | 0.408 | 0.705 | 0.361 | 0.289
NCI-H3122 | 0.913 | 0.945 | 0.978 | 0.874 | 0.907 | 0.985 | 0.992 | 0.968 | – | 0.765 | 0.384 | 0.408 | 0.856 | 0.197 | 0.108
PC-3 [JPC-3] | 1.04 | 1.03 | 1.04 | 0.951 | 0.922 | 0.784 | 0.758 | 0.846 | 0.495 | 0.597 | 0.494 | 0.475 | 0.44 | 0.461 | 0.254
PC-14 | 0.888 | 0.912 | 0.995 | 0.626 | 0.901 | 0.296 | 0.307 | 0.34 | 0.305 | 0.27 | 0.607 | 0.755 | 0.338 | 0.122 | 0.0821
RERF-LC-KJ | 0.836 | 0.935 | 0.907 | 0.487 | 0.79 | 0.254 | 1.02 | 0.905 | 0.419 | 0.71 | 0.422 | 0.365 | 0.33 | 0.217 | 0.253
SW 900 | 0.894 | 1.07 | 0.881 | 0.857 | 0.503 | 0.921 | 0.64 | 0.629 | 0.727 | 0.368 | 0.619 | 0.41 | 0.812 | 0.427 | 0.21
